Patent US11547699B2, “[2-[(5-nitro-1,3-thiazol-2-yl)carbamoyl]phenyl]ethanoate for use in lymphangioleiomyomatosis and other diseases” (priority 2017, dated 2023)

Tests used:
[1] = tested on: phosphorylation of the ribosomal protein S6 in MEF cells; test: rpS6 phosphorylation in MEF cells (ELISA and Western blotting), read-out for mTOR pathway activity; format: cell-based, mouse; settings: 60 minutes incubation
From the text: These assays are used to test the effect of a compound on the activity of the mTOR pathway. Phosphorylation of ribosomal protein rp60 is used as read-out for mTOR pathway activity. […] Thus, these assays mimic a disease causative mechanism.
MEFs are mouse embryo fibroblasts derived from TSC2 knockout (MEF110) and TSC2+ (MEF157) mice. Tsc2 mutations are known to cause tuberous sclerosis and lymphangioleiomyomatosis in humans.
All cells were maintained in DMEM tissue culture medium, with the addition of fetal calf serum to 10% to support cell proliferation, at 37° C. and 5% CO2.
In MEFs, ribosomal protein S6, which is a component of the 40S ribosome, and phosphorylated at Ser236 by p70 S6 kinase can be assayed by ELISA and Western blotting, using phospho-specific antibodies which detect both the human and the mouse forms of rpS6. This assay is predicitve of compounds with protective or therapetic activities for respiratory and vascular diseases, fibrotic diseases, or neurodegenerative diseases.
Cells were grown to 60-80% confluence in DMEM+10% serum. Medium was replaced with fresh serum free medium two hours before addition of test compound of the invention.
Compound was added as a 1:1000 dilution of the stock solution in DMSO. DMSO was added as a vehicle control, and samples were incubated for a further 60 minutes. […]

[2] = tested on: phosphorylation of the ribosomal protein S6 in 621-101 cells; test: rpS6 phosphorylation in 621-101 cells (ELISA and Western blotting), read-out for mTOR pathway activity; format: cell-based, human; settings: 60 minutes incubation
Experimental: These assays are used to test the effect of a compound on the activity of the mTOR pathway. Phosphorylation of ribosomal protein rp60 is used as read-out for mTOR pathway activity. […] Thus, these assays mimic a disease causative mechanism. 621-101 cells are human cells derived from an angiomyolipoma. They have verified TSC2 mutations and are the only disease-derived mutation-bearing cells used that are mimicking the disease Lymphangioleiomyomitosis. Cells were grown to 60-80% confluence in DMEM+10% serum. Medium was replaced with fresh serum free medium two hours before addition of test compound of the invention. Compound was added as a 1:1000 dilution of the stock solution in DMSO. DMSO was added as a vehicle control, and samples were incubated for a further 60 minutes. For ELISA, cells were harvested into 200 ul cell lysis buffer containing both protease and phosphatase inhibitors, to protect the phosphorylation status of rpS6. Lysates were stored at −80° C. prior to use. 50 ul of lysate per sample was used for the ELISA, which was carried out according to manufacturers' instructions. For Western blotting, cells were harvested into 200 ul cell lysis buffer containing both protease and phosphatase inhibitors and resolved by SDS-PAGE before transfer to PVDF membrane and incubation with anti-phospho-rpS6 and anti-total-rpS6 antibodies.

CC(=O)Oc1ccccc1C(=O)Nc1ncc([N+](=O)[O-])s1 [the compound of the invention, [2-[(5-nitro-1,3-thiazol-2-yl)carbamoyl]phenyl]ethanoate]
tolerability by the cells [1]: well tolerated | tolerability by the cells [2]: well tolerated
